We go through 4 compounds from patent US11173156B2, “Solid forms of a kynurenine-3-monooxygenase inhibitor” (CHDI Foundation, Inc., priority 2019, dated 2021).

Common to all, as to format: physicochemical
The nature of series [1]: XRPD analysis of remaining solids from aqueous solubility assessments. Particulars: solids recovered from mother liquor of aqueous solubility assessment. The text has this:
Compound I ethylenediamine A+B disproportionated, as peaks similar to those observed for Compound I free acid Material C were observed.

Series [2] in a line: Approximate aqueous solubility of salts/co-crystals (visual, solvent addition method). Particulars: water; for solubility: estimated visually, solvent addition method. Here is the method: (§1) A weighed sample was treated with aliquots of the test solvent at room temperature. The mixture was sonicated between additions to facilitate dissolution. Complete dissolution of the test material was determined by visual inspection. Solubility was estimated based on the total solvent used to provide complete dissolution. Some samples were then heated and observed visually for complete dissolution. The actual solubility may be greater than the value calculated because of the use of solvent aliquots that were too large or due to a slow rate of dissolution. […] If complete dissolution was achieved as a result of only one aliquot addition, the solubility is expressed as “greater than.”

A short description of series [3]: Deliquescence of salts/co-crystals during exposure to 75% RH. Particulars: ambient temperature, 3 day exposure; for Observation (deliquescence): visual. Here is the method: The salts identified from the salt/co-crystal screen of Compound I (see section 4 above) were assessed visually for deliquescence during exposure to 75% RH at ambient temperature (Table 5). […] The materials from these experiments were recovered and re-analyzed by XRPD to determine if changes in solid form occurred.

Series [4] is described as follows: Dynamic vapor sorption/desorption (DVS). The protocol: Moisture sorption/desorption data were collected on a VTI SGA-100 Vapor Sorption Analyzer. NaCl and PVP were used as calibration standards. Samples were not dried prior to analysis. Sorption and desorption data were collected over a range from 5% to 95% RH at 10% RH increments under a nitrogen purge. The equilibrium criterion used for analysis was less than 0.0100% weight change in 5 minutes with a maximum equilibration time of 3 hours. Data were not corrected for the initial moisture content of the samples.

Series [5] can be described thus: Solubility of Compound I sodium salt forms in solvents and binary solvent systems. Particulars: thermodynamic from solid, 60° C., read-out: Solubility. The protocol:
as §1

The nature of series [6]: Stability at elevated temperatures (XRPD, HPLC). Here is the method:
The stability of Compound I sodium Patterns A, C, and D and Form B, at about 60° C. was evaluated. These forms were weighed into vials covered with a Kimwipe tissue and stored in an oven at 60° C. and ambient pressure. After three days and ten days of exposure, the solids were analyzed by XRPD to check for form conversion. […].

Series [7] can be described thus: Slurry experiments (form stability). To be noted: for XRPD: room temp. Here is the method: Solutions were prepared by adding enough solids to a given solvent so that excess solids were present. The mixture was then agitated in a sealed vial at either ambient or an elevated temperature. After a given amount of time, the solids were isolated for analysis.
The formation and stability of solid forms of the sodium salt of Compound I was further evaluated via slurry experiments. The slurries were formed by combining Compound I sodium Pattern A and a solvent, and allowing the slurry to equilibrate at room temperature. If a free flowing slurry was not achieved, an additional amount of the respective solvent was added before the room temperature equilibration step. All slurries were isolated via centrifuge filtration after five days and twelve days of equilibration. The solids were analyzed by XRPD to check for pattern conversion (Table 13).

Where [8] appears, read: listed as Ethylenediamine B + A.

Usually solubility stands for the dissolved amount per volume that the medium holds. Regarding `O=C(O)c1cc(-c2ccc(OC3CC3)c(Cl)c2)ncn1` [Compound I benzathine Form A, 6-(3-chloro-4-cyclopropoxyphenyl)pyrimidine-4-carboxylic acid], the “Result (XRPD of remaining solids)” value in series [1] was “remained unchanged by XRPD”; in series [1] (listed as Benzathine A), “Benzathine A”. In series [2], the “aqueous solubility (in words)” value is on record as “poor low aqueous solubility”. For the same compound, the solubility in series [2] (listed as Benzathine A) is less than 7 mg/mL. Besides, the “Result (XRPD after exposure)” value in series [3] (listed as Benzathine A) is listed as “Benzathine A”. In series [3], the “Observation (deliquescence)” value was “no deliquescence”.

For the compound `O=C(O)c1cc(-c2ccc(OC3CC3)c(Cl)c2)ncn1` [Compound I ethylenediamine Materials A+B, 6-(3-chloro-4-cyclopropoxyphenyl)pyrimidine-4-carboxylic acid], the “Result (XRPD of remaining solids)” value is “disproportionated” in series [1] (listed as Compound I ethylenediamine A+B) and “Ethylenediamine B + Free Acid C” in series [1] (setting [8]). The “aqueous solubility (in words)” value in series [2] is recorded as “suitable aqueous solubility”. For the same compound, in series [2] (setting [8]), the solubility is less than 10 mg/mL. Besides, the “Observation (deliquescence)” value in series [3] is given as “no deliquescence”.

On to `O=C(O)c1cc(-c2ccc(OC3CC3)c(Cl)c2)ncn1` [Compound I potassium Material A, 6-(3-chloro-4-cyclopropoxyphenyl)pyrimidine-4-carboxylic acid], for which the “Result (XRPD of remaining solids)” value is recorded as “converted to a new material” in series [1] and “broad reflections” in series [1] (listed as Potassium A). The “aqueous solubility (in words)” value in series [2] is recorded as “suitable aqueous solubility”. Also, the solubility in series [2] (listed as Potassium A) is on record as less than 4 mg/mL. The “Observation (deliquescence)” value in series [3] is listed as “no deliquescence”.

For `O=C(O)c1cc(-c2ccc(OC3CC3)c(Cl)c2)ncn1` [Compound I sodium Pattern A, 6-(3-chloro-4-cyclopropoxyphenyl)pyrimidine-4-carboxylic acid], the “hygroscopicity by DVS analysis (in words)” value in series [4] is recorded as “hygroscopic”. In series [4] (DVS analysis), the “deliquescence (in words)” value is recorded as “did not show any indications of deliquescence”. Also, the “material recovered from the DVS analysis compared with starting material by XRPD” value in series [4] (after DVS) was “substantially the same as the starting material”. For the same compound, the DVS weight gain entry was “about 4.9%” in series [4] (at 60% RH) and “about 21.2%” in series [4] (at 90% RH). Further, the solubility in series [5] (organic solvent or mixture, 2-MeTHF) was less than 1.1 mg/mL; in series [5] (organic solvent or mixture, ACN) it was less than 1.2 mg/mL; in series [5] (organic solvent or mixture, Acetone), less than 1.3 mg/mL; in series [5] (organic solvent or mixture, BuOH), less than 1.2 mg/mL; in series [5] (organic solvent or mixture, DCM), less than 1.3 mg/mL; in series [5] (organic solvent or mixture, DMF), 5.8 to 7.7 mg/mL. The solubility in series [5] (organic solvent or mixture, DMSO) was 7.5 to 11.3 mg/mL; in series [5] (organic solvent or mixture, EtOAc), less than 1.1 mg/mL; in series [5] (organic solvent or mixture, EtOH) it was less than 1.3 mg/mL; in series [5] (organic solvent or mixture, Heptane), less than 1.2 mg/mL; in series [5] (organic solvent or mixture, IPA), less than 1.1 mg/mL; in series [5] (organic solvent or mixture, IPAc) it was less than 1.1 mg/mL. The solubility in series [5] (organic solvent or mixture, MEK) was less than 1.3 mg/mL; in series [5] (organic solvent or mixture, MIBK) it was less than 1.2 mg/mL; in series [5] (organic solvent or mixture, MTBE), less than 1.1 mg/mL; in series [5] (organic solvent or mixture, MeOH), 5 to 6.7 mg/mL; in series [5] (organic solvent or mixture, NMP), 10.3 to 20.5 mg/mL; in series [5] (organic solvent or mixture, THF), less than 1.3 mg/mL. Further, the solubility was less than 1.1 mg/mL in series [5] (organic solvent or mixture, Toluene); less than 1.2 mg/mL in series [5] (organic solvent or mixture, c-Hexane); 10 to 20 mg/mL in series [5] (Water). Also, the “chemical and physical form changes after storing at elevated temperature” value in series [6] (about 60° C.) is “No chemical and physical form changes were observed”. This compound also returned an HPLC in series [6] (after storage at 60 ° C. (time point not given)) greater than 99.9 % AUC. The XRPD entry is listed as “Amorphous” in series [7] (ACN slurry, 12 days, dry); “Amorphous” in series [7] (ACN slurry, 12 days, wet); “Low” in series [7] (DCM slurry, 12 days, dry); “Low” in series [7] (DCM slurry, 12 days, wet); “Amorphous” in series [7] (EtOAc slurry, 5 days); “Amorphous” in series [7] (EtOH slurry, 5 days). Besides, the XRPD entry is on record as “Amorphous” in series [7] (THF slurry, 5 days); “Amorphous” in series [7] (THF slurry, 12 days, dry); “Amorphous” in series [7] (THF slurry, 12 days, wet). The “form conversion in slurry / trituration” value was “converted to Compound I sodium Form B” in series [7] (acetone and/or isopropanol (trituration, single form or competitive slurry)) and “rehydrated to Compound I Form E” in series [7] (solvent systems with high water activity). In addition, the “relative stability of the form (in words)” value in series [7] (at the conditions evaluated) is recorded as “metastable relative to Compound I sodium Form B”. Besides, the “stability in slurry (in words)” value in series [7] (water, toluene, DCM and MEK) is reported as “stable as a single form for about five days”.
